# Test results reported in patent US11046657B2, “Pyrimidinone derivatives and uses thereof to neutralize the biological activity of chemokines” (Centre National de la Recherche Scientifique (CNRS), priority 2016, dated 2021).
# Tested on: MRL/lpr mice
# Assay: Peripheral hypercellularity in MRL/lpr lupus prone mice
# Format: in vivo
# Details: single i.v. administration, 100 μg/mouse, counted five days later; p <0.05
# Experimental: Effect of compound (1) and classical anti-inflammatory drugs on peripheral hypercellularity in MRL/lpr mice. MRL/lpr mice (11-13 week-old) received intravenously a single administration of either compound (1) or chalcone 4-Phosphate or indicated molecules in saline (100 μg/mouse of each). The control group received saline only. The number of white blood cells (WBCs)/mL was evaluated by counting cells five days later. The results are expressed as the mean reduction of peripheral WBCs percentage+/−SEM. Statistical significance was assessed using the unpaired t-test. n=number of mice/group; ns=non-significant. […]
# The test was as described previously (Schall et al., 2012; Briand et al., 2014). […] After centrifugation, white blood cells (WBCs) resuspended in phosphate buffer saline containing fetal calf serum were stained with acridine orange/propidium iodide and counted using a LUNA FL apparatus (logos Biosystems, Annandale, USA). The number of living WBCs in each group was compared to the one counted in the control group and the decrease of peripheral cell number was calculated. […] The results are expressed as the mean decreased of peripheral WBCs percentage SEM. Statistical differences were determined using the unpaired t test. Statistical results were calculated using the graphPad Prism software.
smiles,measurement,value
"COc1cc(-c2cc(-c3ccc(Cl)cc3)nc(=O)[nH]2)ccc1O [compound (1), 4-(4-Chlorophenyl)-6-(4-hydroxy-3-methoxyphenyl)pyrimidin-2(1H)-one]",Peripheral blood hypercellularity (WBCs),significantly reduce peripheral blood hypercellularity
